Assay results taken from patent US7879876B2, “Sulfonamide derivatives and use thereof for the modulation of metalloproteinases” (Merck Serono SA, priority 2005, dated 2011).
pIC50: −log10 of the molar value.

Key:
Type in all cases: biochemical
[1] = target: MMP-14 (Homo sapiens, UniProt P50281); test: MMP-14 enzyme inhibition assay (coumarin-labelled peptide substrate); details: for inhibition at 5 µM / inhibition at 0.1 µM: read-out: percentage inhibition MMP14
Method in brief: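 Recombinant human enzyme, APMA-activated if necessary, was incubated with McaPLGLDpaAR substrate and compound (10 concentrations in duplicate, 100 μM to 5.1 nM) in Tris-HCl pH 7.6 with NaCl, CaCl2 and Brij 35 for 2 h at 37 °C. Fluorescence was read at 320/405 nm, and IC50 was taken from a four-parameter fit.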

[2] = target: T1, collagenase (MMP-1) (Homo sapiens, UniProt P03956); test: MMP-1 enzyme inhibition assay (coumarin-labelled peptide substrate); details: for inhibition at 5 µM / inhibition at 0.1 µM: read-out: percentage inhibition MMP1
T1 sequence (P03956 100-469): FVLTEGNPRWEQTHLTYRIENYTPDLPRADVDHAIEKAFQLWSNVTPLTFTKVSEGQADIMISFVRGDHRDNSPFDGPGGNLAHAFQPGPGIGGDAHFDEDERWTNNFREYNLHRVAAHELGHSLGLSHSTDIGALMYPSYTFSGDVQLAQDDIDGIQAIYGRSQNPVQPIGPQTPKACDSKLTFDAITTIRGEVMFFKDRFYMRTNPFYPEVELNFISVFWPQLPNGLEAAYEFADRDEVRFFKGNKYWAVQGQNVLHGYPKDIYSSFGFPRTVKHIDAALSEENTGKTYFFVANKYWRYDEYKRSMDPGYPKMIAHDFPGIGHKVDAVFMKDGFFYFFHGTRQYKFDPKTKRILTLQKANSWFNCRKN
Method in brief: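 Recombinant human MMP-1, APMA-activated if needed, in Tris-HCl pH 7.6 with NaCl, CaCl2 and 0.05% Brij 35; McaPLGLDpaAR substrate added as 8 μM solution, 2 h at 37 °C. Fluorescence (320/405 nm) read without stopping; IC50 from 10 duplicate concentrations (100 μM–5.1 nM) by four-parameter fit.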

[3] = target: human ADAM17 (TACE) (Homo sapiens, UniProt P78536); test: TACE enzyme inhibition assay
Chain of human ADAM17 (TACE) (P78536 215-824): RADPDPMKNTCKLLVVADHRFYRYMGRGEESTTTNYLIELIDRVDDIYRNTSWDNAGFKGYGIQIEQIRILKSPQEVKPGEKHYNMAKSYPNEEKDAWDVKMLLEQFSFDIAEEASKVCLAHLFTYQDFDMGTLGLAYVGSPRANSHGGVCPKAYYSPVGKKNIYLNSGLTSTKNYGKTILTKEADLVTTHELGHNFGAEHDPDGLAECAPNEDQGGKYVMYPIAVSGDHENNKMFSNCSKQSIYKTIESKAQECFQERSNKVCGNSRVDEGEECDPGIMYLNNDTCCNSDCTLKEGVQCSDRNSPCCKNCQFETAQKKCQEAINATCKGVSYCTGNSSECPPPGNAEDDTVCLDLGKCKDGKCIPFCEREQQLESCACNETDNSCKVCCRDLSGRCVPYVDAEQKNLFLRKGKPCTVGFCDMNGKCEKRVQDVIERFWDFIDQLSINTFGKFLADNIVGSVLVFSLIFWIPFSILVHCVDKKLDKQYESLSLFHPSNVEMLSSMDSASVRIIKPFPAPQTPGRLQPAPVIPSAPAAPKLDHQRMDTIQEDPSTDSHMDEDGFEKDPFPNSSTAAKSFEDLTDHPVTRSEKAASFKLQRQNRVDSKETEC
Procedure: Compounds of the invention were tested to assess their activities as inhibitors of MMP-1, MMP-2, MMP-9, MMP-14, MMP-12 and TACE. MMP-9 Assay Protocol
Compounds of the invention can be tested for inhibitory activity against human ADAM17 in an assay using human Mca-(endo-1a-Dap(Dnp)-TNF-alpha(−5 to +6)amide as substrate (FEBS Letters, 2000, 275-279).
Stock solutions are prepared as followed: • Assay Buffer: 20 mM Hepes pH 7.5 (Fluka) containing 0.05% Brij 35 (Fluka) • Substrate: 6.1 mM human Mca-(endo-1a-Dap(Dnp)-TNF-alpha(−5 to +6)amide (Bachem) stock solution in 100% DMSO (stored at −20° C.); diluted to 5 μM in assay buffer. • Enzyme: Recombinant human ADAM17, appropriately diluted in assay buffer (1.5 μg/ml).
Test Compounds are prepared initially as 10 mM compound solution in 100% DMSO, diluted to 1 mM in 100% DMSO, then serially diluted 3-fold in 100% DMSO across a 96-well microtitre plate. Assay concentration range is typically between 100 μM to 0.01 nM. The assay is performed in a total volume of 100 μL per well in 96-well microtitre plates. Appropriate concentrations of test compounds dissolved in 10 μL of DMSO are added to the wells, followed by substrate solution (50 μL, 5 μM prepared by dilution of DMSO stock in assay buffer) and enzyme solution (40 μL). For each as say ten concentrations of test compound are examined in […]. Control wells lack either enzyme or test compound. The reactions are incubated at room temperature for 1.5 hours. The fluorescence at 405 nm is measured immediately with a fluorometer using 355 nm excitation, without stopping the reaction.
The effect of the test compound is determined from the dose response curve generated by the 10 duplicate concentrations of inhibitor. The IC50 (the concentration of compound required to give a 50% decrease in enzyme activity) is obtained by fitting data to the equation, Y=a+((b−a)/(1+(c/X)^d)). (Y=inhibition achieved for a particular dose; X=the dose in nM; a=minimum y or zero % inhibition; b=maximum y or 100% inhibition; c=is the IC50; d=is the slope). The result is rounded to one significant figure.

[4] = target: 92 kDa gelatinase (MMP-9) (Homo sapiens, UniProt P14780); test: MMP-9 enzyme inhibition assay (coumarin-labeled peptide substrate); details: for inhibition at 5 µM: read-out: percentage inhibition MMP9; for pIC50: read-out: IC50 MMP9
Chain of 92 kDa gelatinase (MMP-9) (P14780 107-707 limits assumed): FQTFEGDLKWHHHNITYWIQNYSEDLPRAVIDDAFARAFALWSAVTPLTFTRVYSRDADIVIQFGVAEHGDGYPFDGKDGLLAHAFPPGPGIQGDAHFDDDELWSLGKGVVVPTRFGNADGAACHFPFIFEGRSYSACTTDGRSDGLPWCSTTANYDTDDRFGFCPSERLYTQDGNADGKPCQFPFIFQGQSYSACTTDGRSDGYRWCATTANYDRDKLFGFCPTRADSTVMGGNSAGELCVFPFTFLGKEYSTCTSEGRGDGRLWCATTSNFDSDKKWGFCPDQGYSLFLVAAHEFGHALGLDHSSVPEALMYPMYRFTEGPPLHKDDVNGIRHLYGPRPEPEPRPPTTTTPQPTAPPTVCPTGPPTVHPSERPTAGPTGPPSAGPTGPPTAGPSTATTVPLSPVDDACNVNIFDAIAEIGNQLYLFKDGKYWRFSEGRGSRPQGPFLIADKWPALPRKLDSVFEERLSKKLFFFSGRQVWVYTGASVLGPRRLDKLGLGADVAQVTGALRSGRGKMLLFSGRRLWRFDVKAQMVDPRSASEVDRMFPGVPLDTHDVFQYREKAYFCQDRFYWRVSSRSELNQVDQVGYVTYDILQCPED
Method in brief: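 Recombinant human MMP-9 (APMA-activated if needed) was assayed in 100 mM Tris-HCl pH 7.6, 100 mM NaCl, 10 mM CaCl2, 0.05% Brij 35, with McaPLGLDpaAR substrate at 37° C. for 2 h. Fluorescence was read at ex 320/em 405 nm over ten 3-fold compound doses (100 μM–5.1 nM) in duplicate. IC50 came from a four-parameter fit.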

O=CN(O)C(CS(=O)(=O)N1CCc2ccc(F)cc2C1)c1ccoc1 (stereo not shown) [Example 52, N-[2-[(7-fluoro-3,4-dihydroisoquinolin-2(1H)-yl)sulfonyl]-1-(3-furyl)ethyl]-N-hydroxyformamide] was tested, and the inhibition at 5 µM [1] was 49%, the inhibition at 5 µM [2] was 14% and the pIC50 [3] was 7.04. It also gave an inhibition at 5 µM [4] of 10%.
O=CN(O)C(COCc1ccccc1)CS(=O)(=O)N1CCc2ccc(C(F)(F)F)cc2C1 (stereo not shown) [Example 59, N-[2-(benzyloxy)-1-({[7-(trifluoromethyl)-3,4-dihydro-isoquinolin-2(1H)-yl]sulfonyl}methyl)ethyl]-N-hydroxyformamide] gave an inhibition at 5 µM [1] of 43%, an inhibition at 5 µM [2] of 35% and a pIC50 [3] of less than 5.30. It also gave an inhibition at 5 µM [4] of 32%.
CC(C)c1ccc2c(c1)CCN(S(=O)(=O)CC(C1CCCC1)N(O)C=O)C2 (stereo not shown) [Example 81, N-{1-cyclopentyl-2-[(6-isopropyl-3,4-dihydroisoquinolin-2(1H)-yl)sulfonyl]ethyl}-N-hydroxyformamide] was tested, and the inhibition at 0.1 µM [1] was 0%, the inhibition at 5 µM [1] was 87% and the inhibition at 5 µM [2] was 3%. It also gave a pIC50 [3] of less than 5.30 and an inhibition at 5 µM [4] of 44%.
In the case of CCC(CC)C(CS(=O)(=O)N1CCc2cc(C(F)(F)F)ccc2C1)N(O)C=O (stereo not shown) [Example 37, N-[2-ethyl-1-({[6-(trifluoromethyl)-3,4-dihydroisoquinolin-2(1H)-yl]sulfonyl}methyl)butyl]-N-hydroxyformamide], the inhibition at 0.1 µM [1] was 8%, the inhibition at 5 µM [1] was 83% and the inhibition at 5 µM [2] was 36%. It also gave a pIC50 [3] of 5.96 and an inhibition at 5 µM [4] of 58%.
Work on O=CN(O)C(CCc1ccccc1)CS(=O)(=O)N1Cc2ccccc2C1 (stereo not shown) [Example 6, N-{1-[(1,3-dihydro-2H-isoindol-2-ylsulfonyl)methyl]-3-phenylpropyl}-N-hydroxyformamide] yielded a pIC50 ([1]; read-out: IC50 MMP14) of 6.06, a pIC50 ([2]; read-out: IC50 MMP1) of less than 5.30 and a pIC50 [3] of 6.55. For the same molecule, the pIC50 [4] was 6.06.
O=CN(O)C(CS(=O)(=O)N1CCc2ccc(C(F)(F)F)cc2C1)C1CC1 (stereo not shown) [Example 83, N-(1-cyclopropyl-2-{[7-(trifluoromethyl)-3,4-dihydroisoquinolin-2(1H)-yl]sulfonyl}ethyl)-N-hydroxyformamide] gave an inhibition at 5 µM [1] of 6%, an inhibition at 5 µM [2] of 4% and a pIC50 [3] of less than 5.30. For the same molecule, the inhibition at 5 µM [4] was 4%.
CCCOc1ccc2c(c1)CN(S(=O)(=O)CC(CC(C)(C)C)N(O)C=O)CC2 (stereo not shown) [Example 40, N-(3,3-dimethyl-1-{[(7-propoxy-3,4-dihydroisoquinolin-2(1H)-yl)sulfonyl]methyl}butyl)-N-hydroxyformamide] showed an inhibition at 5 µM [1] of 54%, an inhibition at 5 µM [2] of 2% and a pIC50 [3] of 5.95. It also gave an inhibition at 5 µM [4] of 11%.
Work on O=CN(O)C(CS(=O)(=O)N1CCc2ccc(F)cc2C1)C1CCCC1 (stereo not shown) [Example 60, N-{1-cyclopentyl-2-[(7-fluoro-3,4-dihydroisoquinolin-2(1H)-yl)sulfonyl]ethyl}-N-hydroxyformamide] yielded an inhibition at 5 µM [1] of 16%, an inhibition at 5 µM [2] of 6% and a pIC50 [3] of 7.10. For the same molecule, the inhibition at 5 µM [4] was 0%.
O=CN(O)C(COCc1ccccc1)CS(=O)(=O)N1CCc2ccc(Cl)cc2C1 (stereo not shown) [Example 58, N-(2-(benzyloxy)-1-{[(7-chloro-3,4-dihydroisoquinolin-2(1H)-yl)sulfonyl]methyl}ethyl)-N-hydroxyformamide] showed an inhibition at 0.1 µM [1] of 11%, an inhibition at 5 µM [1] of 79% and an inhibition at 0.1 µM [2] of 4%. For the same molecule, the inhibition at 5 µM [2] was 68%, the pIC50 [3] was 7.25 and the inhibition at 5 µM [4] was 41%.
Work on COc1ccc(C(CS(=O)(=O)N2CCc3ccccc3C2)N(O)C=O)cn1 (stereo not shown) [Example 13, N-[2-(3,4-dihydroisoquinolin-2(1H)-ylsulfonyl)-1-(6-methoxypyridin-3-yl)ethyl]-N-hydroxyformamide] yielded an inhibition at 5 µM [1] of 64%, an inhibition at 5 µM [2] of 16% and a pIC50 [3] of 7.40. The pIC50 [4] was less than 5.30.
O=CN(O)[C@@H](CS(=O)(=O)N1CCc2ccc(C(F)(F)F)cc2C1)[C@H]1CCCO1 [Example 32, N-hydroxy-N-((1R)-1-[(2R)-tetrahydrofuran-2-yl]-2-{[7-(trifluoromethyl)-3,4-dihydroisoquinolin-2(1H)-yl]sulfonyl}ethyl)formamide] gave an inhibition at 5 µM [1] of 14%, an inhibition at 5 µM [2] of 4% and a pIC50 [3] of less than 5.30. For the same molecule, the inhibition at 5 µM [4] was 4%.
Molecule CC(C)(CS(=O)(=O)N1CCc2ccc(Br)cc2C1)N(O)C=O [Example 56, N-{2-[(7-bromo-3,4-dihydroisoquinolin-2(1H)-yl)sulfonyl]-1,1-dimethylethyl}-N-hydroxyformamide] has an inhibition at 5 µM [1] of 48%, an inhibition at 5 µM [2] of 34% and a pIC50 [3] of less than 5.30. It also gave an inhibition at 5 µM [4] of 2%.
CC(C)c1ccc2c(c1)CCN(S(=O)(=O)C[C@H]([C@H]1CCCO1)N(O)C=O)C2 [Example 45, N-hydroxy-N-{(1S)-2-[(6-isopropyl-3,4-dihydroisoquinolin-2(1H)-yl)sulfonyl]-1-[(2R)-tetrahydrofuran-2-yl]ethyl}formamide] showed an inhibition at 5 µM [1] of 92%, an inhibition at 5 µM [2] of 2% and a pIC50 [3] of 6.09. For the same molecule, the inhibition at 5 µM [4] was 47%.
O=CN(O)C(CCC(F)(F)F)CS(=O)(=O)N1CCc2ccc(Cl)cc2C1 (stereo not shown) [Example 76, N-(1-{[(7-chloro-3,4-dihydroisoquinolin-2(1H)-yl)-sulfonyl]methyl}-4,4,4-trifluorobutyl)-N-hydroxyformamide] was tested, and the inhibition at 5 µM [1] was 59%, the inhibition at 5 µM [2] was 43% and the pIC50 [3] was 6.94. For the same molecule, the inhibition at 5 µM [4] was 14%.
Molecule O=CN(O)C1(CS(=O)(=O)N2CCc3ccc(Cl)cc3C2)CCCC1 [Example 62, N-(1-{[(7-chloro-3,4-dihydroisoquinolin-2(1H)-yl)-sulfonyl]methyl}cyclopentyl)-N-hydroxyformamide] has an inhibition at 5 µM [1] of 75%, an inhibition at 5 µM [2] of 52% and a pIC50 [3] of 6.05. It also gave an inhibition at 5 µM [4] of 1%.
For O=CN(O)C(CS(=O)(=O)N1CCc2ccccc2C1)c1cncnc1 (stereo not shown) [Example 9, N-[2-(3,4-dihydroisoquinolin-2(1H)-ylsulfonyl)-1-pyrimidin-5-ylethyl]-N-hydroxyformamide], the inhibition at 5 µM [1] was 61%, the inhibition at 5 µM [2] was 29% and the pIC50 [3] was 6.89. It also gave a pIC50 [4] of less than 5.30.
Work on CC(C)CC(CS(=O)(=O)N1CCc2ccc(Br)cc2C1)N(O)C=O (stereo not shown) [Example 55, N-(1-{[(7-bromo-3,4-dihydroisoquinolin-2(1H)-yl)-sulfonyl]methyl}-3-methylbutyl)-N-hydroxyformamide] yielded an inhibition at 0.1 µM [1] of 19%, an inhibition at 5 µM [1] of 86% and an inhibition at 0.1 µM [2] of 7%. The inhibition at 5 µM [2] was 69%, the pIC50 [3] was 6.80 and the inhibition at 5 µM [4] was 39%.
With O=CN(O)[C@H](CS(=O)(=O)N1Cc2ccc(F)cc2C1)[C@H]1CCCO1 [Example 29, N-{(1S)-2-[(5-fluoro-1,3-dihydro-2H-isoindol-2-yl)-sulfonyl]-1-[(2R)-tetrahydrofuran-2-yl]ethyl}-N-hydroxyformamide] the inhibition at 5 µM [1] was 78%, the inhibition at 0.1 µM [2] was 22% and the inhibition at 5 µM [2] was 94%. It also gave a pIC50 [3] of 6.56 and an inhibition at 5 µM [4] of 40%.
